# Laboratory results published in article PMC4414309, “Target Modulation by a Kinase Inhibitor Engineered to Induce a Tandem Blockade of the Epidermal Growth Factor Receptor (EGFR) and c-Src: The Concept of Type III Combi-Targeting” (PLoS ONE, 2015).
# Where two headings read alike, the source gives them in different places.
# Tests used:
# EGFR [1] = target: T1, EGFR (Homo sapiens, UniProt P00533); assay: Published EGFR kinase inhibition of AL621; assay type: biochemical; conditions: published IC50 of AL621 compared with AL776
# T1 construct: purchased Enzo Life Sciences Inc, NY, USA; Signal Chem, Richmond, Canada
# [2] = LC-MS analysis of AL776 hydrolysis in plasma in vivo; set-up: species or system CD-1 mice; conditions: AL776 80 mg/kg i.v., after 30 min
# Protocol: CD-1 mice were divided into groups of three and treated with 80 mg/kg of AL776, injected intraperitoneally (i.p) or intravenously (i.v). Mice were sacrificed and their plasma was collected for further analysis after 0, 5, 15 and 30 min after drug treatment. Plasma samples were extracted using twice the volume of methanol and lysed at 13,000 rpm for 30 min at 4°C. The resulting supernatant from each sample was collected, filtered and evaporated to dryness before reconstituting in 100 μL of methanol. LC-MS analyses were performed on a Synapt G2-S instrument coupled with an Acquity UPLC Class I system both from Waters. Elution rate was set at 500 μL/min using an Eclipse XDB C8, 3.5 um, 2.1 x 100 mm chromatographic column from Agilent Technologies. The experiments were performed with the following eluents: 0.1% aqueous formic acid (eluent A) and methanol (eluent B). The initial mobile phase was 30% B, which was maintained for 0.2 min at the beginning of the run. The following gradient elution was subsequently applied: 30 to 50% B from 0.2 to 4 min; 50 to 80% B from 4 to 10 min; held at 80% B from 10 to 11 min. Thereafter, eluent B was decreased to 30% in 0.2 min and held constant for up to 15 min to allow the column to equilibrate. Each sample was diluted with methanol in order to avoid detector saturation and […] aliquots of the resulting solutions were injected. Analyses were performed with the electrospray interface in positive ion mode and mass spectra acquired from m/z 100 to 1200. For accurate mass determination, Leucine Enkephalin was used as lock mass. The MassLynx software was used for instrument control, data acquisition and data processing.
# EGFR [3] = target: T1, EGFR; set-up: method as in PMID 22943437; conditions: read-out: IC50 EGFR kinase inhibition (published); cited from earlier work
# 4T1 cells [4] = assay: Boyden chamber invasion assay, 4T1; assay type: cell-based, mouse; conditions: for Effect on invasion: 4T1, concentration as low as 0.1 μM, 24h
# Protocol: (§1) The invasive property of MDA-MB-231 and 4T1 cells was determined using the Boyden-chamber invasion assay. Cells suspended in serum-free media were plated (120–150,000 cells/well) onto polycarbonate transwell inserts (8 μm pore size, BD Biosciences) coated with matrigel (6%) (BD Biosciences), separating the top and bottom chambers (50 μl/filter). […] The invasive property of cells was observed 24h after treatment by fixing cells in formalin and staining with 0.1% crystal violet (Sigma-Aldrich Canada Ltd). Cells attached on the upper surface of the insert (top chamber) were removed by gently scraping away with a cotton swab, whereas those that invaded onto the lower side of the insert were observed using a microscope (Leica DM IL inverted microscope, 10X). Images of five non-overlapping fields of invading cells were captured using the Leica DFC300FX camera and quantification was done using the Scion Image Analysis (3.53.0.0) software and ImageJ 1.46r software. The results were expressed in terms of percentage of invading cells relative to control and the bar graphs represent the average of three independent experiments.
# MDA-MB-231 cells [5] = assay: Boyden chamber invasion assay, MDA-MB-231; assay type: cell-based, human; conditions: for Effect on invasion: MDA-MB-231, concentration as low as 0.1 μM, 24h
# Protocol: as §1
# 4T1 cells [6] = assay: Growth inhibition, SRB assay, 4T1; conditions: Mus musculus, 4T1, 120 h, read-out: IC50 growth inhibition 4T1
# Protocol: (§3) Growth inhibition was measured in cells using the sulforhodamine B (SRB) assay [48]. […] The plates were subsequently rinsed with 1% acetic acid, and allowed to dry overnight. […] The results were analyzed using GraphPad Prism 6.0 (GraphPadSoftware, Inc., San Diego, CA) and the sigmoidal dose response curve was used to determine IC50 values. Each experiment was carried out at least four times, in triplicate.
# MDA-MB-231 cells [7] = assay: Growth inhibition, SRB assay, MDA-MB-231; conditions: Homo sapiens, MDA-MB-231, 120 h, read-out: IC50 growth inhibition MDA-MB-231
# Protocol: as §3
# NIH3T3 wild type cells = assay: Growth inhibition, sulforhodamine B (SRB) assay, NIH3T3 wild type; conditions: Mus musculus, NIH3T3, 120 h, read-out: IC50 growth inhibition NIH3T3 – Wt
# Protocol: as §3
# EGFR [8] = target: T1, EGFR; assay: In vitro kinase assay, EGFR; assay type: biochemical; conditions: ATP 50 μM, average of three independent experiments in duplicate, read-out: IC50 EGFR kinase inhibition
# Protocol: (§2) The EGFR and c-Src kinase assays were performed in 96-well plates (NuncMaxisorp) coated with PGT (poly L-glutamic acid L-tyrosine, 4:1, Sigma Aldrich, MO, USA) and incubated at 37°C for 48h prior to using. PGT served as the substrate to be phosphorylated by EGFR (Enzo Life Sciences Inc, NY, USA, Signal Chem, Richmond, Canada) and c-Src (Enzo Life Sciences Inc, NY, USA, Signal Chem, Richmond, Canada) in the presence of ATP (50 μM). […] To each well, 15 ng of EGFR (20 μg/ml) or 6 ng of c-Src (0.1 μg/μl) were added. The phosphorylated substrate was detected using an HRP-conjugated anti-phosphotyrosine antibody (Santa Cruz Biotechnology, CA). The signal was developed by the addition of 3, 3’, 5, 5’-tetramethylbenzidine peroxidase substrate (Kierkegaard and Perry Laboratories, Gaithersburg, MD) and the colorimetric reaction was monitored at 450 nm using a microplate reader ELx808 (BioTek Instruments). The IC50 values were calculated using GraphPad Prism 6.0 (GraphPadSoftware, Inc., San Diego, CA). Each experiment was carried out at least three times, in duplicate.
# c-Src = target: T2, c-Src (Homo sapiens, UniProt P12931); assay: In vitro kinase assay, c-Src; assay type: biochemical; conditions: ATP 50 μM, read-out: IC50 c-Src kinase inhibition
# T2 construct: purchased Enzo Life Sciences Inc, NY, USA; Signal Chem, Richmond, Canada
# Protocol: as §2
# [9] = average of three independent experiments in duplicate
# T1 sequence (P00533 25-1210): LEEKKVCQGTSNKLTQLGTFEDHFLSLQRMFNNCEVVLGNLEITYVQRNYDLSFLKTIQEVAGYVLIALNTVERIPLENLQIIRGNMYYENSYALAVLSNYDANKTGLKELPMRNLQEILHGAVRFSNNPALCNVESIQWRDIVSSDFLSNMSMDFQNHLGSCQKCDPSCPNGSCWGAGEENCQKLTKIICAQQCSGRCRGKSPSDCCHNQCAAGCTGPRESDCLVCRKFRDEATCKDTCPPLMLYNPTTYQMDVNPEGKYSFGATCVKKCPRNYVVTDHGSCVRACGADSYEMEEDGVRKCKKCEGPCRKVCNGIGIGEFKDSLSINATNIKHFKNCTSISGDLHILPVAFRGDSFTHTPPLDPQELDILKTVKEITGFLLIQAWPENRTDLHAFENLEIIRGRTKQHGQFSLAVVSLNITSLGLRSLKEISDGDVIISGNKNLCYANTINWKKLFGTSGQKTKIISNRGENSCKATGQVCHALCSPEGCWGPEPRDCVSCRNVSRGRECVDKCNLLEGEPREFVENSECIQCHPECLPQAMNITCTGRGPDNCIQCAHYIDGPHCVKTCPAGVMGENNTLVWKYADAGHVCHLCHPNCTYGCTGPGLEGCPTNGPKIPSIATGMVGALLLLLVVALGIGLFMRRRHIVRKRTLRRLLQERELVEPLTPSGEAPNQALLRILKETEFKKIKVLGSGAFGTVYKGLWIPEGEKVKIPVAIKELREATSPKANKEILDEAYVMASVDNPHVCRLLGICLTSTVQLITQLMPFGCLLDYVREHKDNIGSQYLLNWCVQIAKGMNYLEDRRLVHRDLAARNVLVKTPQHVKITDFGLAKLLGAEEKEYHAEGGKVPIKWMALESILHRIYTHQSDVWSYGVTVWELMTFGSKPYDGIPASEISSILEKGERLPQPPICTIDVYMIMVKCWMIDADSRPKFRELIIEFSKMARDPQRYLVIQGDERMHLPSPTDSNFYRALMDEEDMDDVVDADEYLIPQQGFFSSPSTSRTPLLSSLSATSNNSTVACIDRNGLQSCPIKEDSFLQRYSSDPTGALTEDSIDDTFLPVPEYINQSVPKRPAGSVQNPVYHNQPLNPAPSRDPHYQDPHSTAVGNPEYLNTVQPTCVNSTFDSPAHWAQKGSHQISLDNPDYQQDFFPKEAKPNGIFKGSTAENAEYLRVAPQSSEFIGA
# T2 sequence (P12931 whole entry): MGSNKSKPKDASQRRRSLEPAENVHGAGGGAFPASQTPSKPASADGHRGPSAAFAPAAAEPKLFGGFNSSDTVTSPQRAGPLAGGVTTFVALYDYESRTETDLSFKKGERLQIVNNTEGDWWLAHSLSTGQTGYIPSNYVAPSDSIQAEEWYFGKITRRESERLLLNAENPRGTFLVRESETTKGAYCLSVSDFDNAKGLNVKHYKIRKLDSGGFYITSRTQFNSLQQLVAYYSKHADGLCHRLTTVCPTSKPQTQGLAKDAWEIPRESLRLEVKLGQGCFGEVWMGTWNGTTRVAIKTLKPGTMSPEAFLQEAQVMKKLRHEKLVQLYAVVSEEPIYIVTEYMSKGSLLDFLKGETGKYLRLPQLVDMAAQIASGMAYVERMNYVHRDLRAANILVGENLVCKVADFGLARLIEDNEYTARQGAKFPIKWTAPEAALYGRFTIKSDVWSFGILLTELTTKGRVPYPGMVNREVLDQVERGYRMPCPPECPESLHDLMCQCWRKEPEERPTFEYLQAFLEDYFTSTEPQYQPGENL
Compound,Plasma level as metabolite of AL776 [2],Effect on invasion (4T1 cells [4]),Effect on invasion (MDA-MB-231 cells [5]),IC50 (EGFR [8]) [nM],IC50 (c-Src; [9]) [nM],further results
CN(CCO)Cc1ccc(C(=O)Nc2ccc3ncnc(Nc4cccc(Cl)c4)c3c2)cc1 [AL621],abundant levels,–,–,–,–,EGFR kinase potency relative to intact AL776 (EGFR [1]): ca. 40 fold; IC50 (EGFR [3]): 3 nM
"Cc1nc(Nc2ncc(C(=O)Nc3c(C)cccc3Cl)s2)cc(N2CCN(CCO)CC2)n1 [Dasatinib, dasatinib, reference compound]",abundant levels,strongly inhibited invasion,strongly inhibited invasion,–,–,IC50 (4T1 cells [6]): 50 ± 20 nM; IC50 (MDA-MB-231 cells [7]): 20 ± 10 nM; IC50 (NIH3T3 wild type cells): 16400 ± 5200 nM
"COc1cc2ncnc(Nc3ccc(F)c(Cl)c3)c2cc1OCCCN1CCOCC1 [Gefitinib, gefitinib]",–,mostly unable to block invasion,mostly unable to block invasion,–,–,Anti-invasive effect weaker than dasatinib (4T1 cells [4]; 4T1): 2-3 fold; Anti-invasive effect weaker than dasatinib (MDA-MB-231 cells [5]; MDA-MB-231): 2-3 fold
Cc1nc(Nc2ncc(C(=O)Nc3c(C)cccc3Cl)s2)cc(N2CCN(CCOC(=O)c3cnc(C(=O)Nc4ccc5ncnc(Nc6cccc(Cl)c6)c5c4)cn3)CC2)n1 [III],–,–,–,600 ± 200,–,IC50 (c-Src): < 0.1 nM
Cc1nc(Nc2ncc(C(=O)Nc3c(C)cccc3Cl)s2)cc(N2CCN(CCOC(=O)CCC(=O)Nc3ccc4ncnc(Nc5cccc(Cl)c5)c4c3)CC2)n1 [IV],–,–,–,400 ± 100,8 ± 3,–
Cc1nc(Nc2ncc(C(=O)Nc3c(C)cccc3Cl)s2)cc(N2CCN(CCOC(=O)OCCN3CCN(CCNc4ccc5ncnc(Nc6cccc(Br)c6)c5c4)CC3)CC2)n1 [VI],–,–,–,1100 ± 300,40 ± 10,–
